In patent US8026219B2, “Antimicrobial linear peptides” (Universitat de Girona, priority 2006, dated 2011):
Residues, ends and D or L forms follow the SMILES beside them. No end group written: not given here. *: point of attachment. Tos = Cc1ccc(S(=O)(=O)*)cc1; Bz = O=C(c1ccccc1)*

Assays:
[1] = system: Erwinia amylovora PMV6076; experiment: Minimum inhibitory concentration (MIC), microbial growth by optical density; assay type: cell-based; details: 48 h incubation at 25° C., TSB medium
Procedure: (§1) Each experiment was performed twice.

[2] = system: Pseudomonas syringae EPS94; experiment: as above; assay type: cell-based; details: 48 h incubation at 25° C., TSB medium
Procedure: as §1

[3] = system: erythrocytes from fresh human blood; details: 5% erythrocytes, 1 h at 37° C., relative to 200 μM melittin; for % Haemolysis 50 μM: 50 μM peptide; for % Haemolysis 150 μM: 150 μM peptide; for % Haemolysis 250 μM: 250 μM peptide
Procedure: A description of the methodology used to determine the haemolytic activity is found in Oren et al, Biochemistry, 2000, 39, 6103-6114, and in Raguse et al., J. Am. Chem. Soc., 2002, 124, 12774-12785.
The haemolytic activity of the peptides of the invention was evaluated by determining the release of haemoglobin which is produced on placing in contact a solution of the peptides with a suspension of erythrocytes 5% by volume, from fresh human blood.
The blood was collected aseptically using a Vactainer® K2E system (Belliver, Great Britain) with EDTA and it was stored at 4° C. for a period lower than 2 hours.
The blood was centrifuged at 6000 g for 5 minutes to separate the erythrocytes. There were washed three times with TRIS buffer (10 mM TRIS, 150 mM NaCl, pH 7.2) and they were resuspended in TRIS buffer until obtaining a suspension which contained 10% by volume of erythrocytes.
The peptides were solubilized in TRIS buffer until a final concentration of 100, 300 and 500 μM
The replicas were used for each peptide and concentration.
65 μl of 10% erythrocyte suspension was mixed with 65 μl of the peptide solution in each well of a 96-well plate (Micro-Amp®, Applied Biosystems, USA) (5% by volume of erythrocytes) and the mixture was incubated for 1 h at 37° C. under stirring. In this way, the erythrocyte suspensions were subjected to peptide concentrations of 50, 150 and 250 μM.
Next, the plates were centrifuged at 3500 g during 10 minutes and aliquots were transferred of 80 μl of supernatant to microplates with 100 wells (Bioscreen), which were diluted with 80 μl of milli-Q water.
The degree of haemolysis was determined from the absorbance at 540 nm with a Bioscreen plate reader.
The complete positive haemolysis control was determined in a TRIS buffer solution which contained 200 μM melittin (Sigma-Aldrich, Spain)
The percentage of haemolysis (H) was determined using the following equation: H=100×[Op−Ob)/(Om−Ob)]
Where OP as the optical density measured for a determined peptide concentration, Ob was the optical density of the buffer solution, and Om was the optical density for the positive control with melittin.

[4] = system: Xanthomonas vesicatori 2133-2; experiment: Minimum inhibitory concentration (MIC), microbial growth by optical density; details: 48 h incubation at 25° C., TSB medium

Molecule | range of concentrations including the MIC, E. amylovora [1] | range of concentrations including the MIC, P. syringae [2] | % Haemolysis 50 μM [3] | % Haemolysis 150 μM [3] | % Haemolysis 250 μM [3] | range of concentrations including the MIC, X. vesicatoria [4]
CC[C@H](C)[C@H](NC(=O)[C@H](CCCCN)NC(=O)[C@H](CCCCN)NC(=O)[C@H](Cc1ccccc1)NC(=O)[C@H](CC(C)C)NC(=O)[C@H](CCCCN)NC(=O)[C@@H](N)Cc1ccccc1)C(=O)N[C@@H](CC(C)C)C(=O)N[C@@H](CCCCN)C(=O)N[C@@H](Cc1ccc(O)cc1)C(=O)N[C@@H](CC(C)C)C(N)=O [BP090] | 5 to 7.5 µM | 5 to 7.5 µM | 11% | 57% | 84% | 2.5 to 5 µM
CC[C@H](C)[C@H](NC(=O)[C@H](CCCCN)NC(=O)[C@H](CCCCN)NC(=O)[C@H](Cc1ccccc1)NC(=O)[C@H](CC(C)C)NC(=O)[C@H](CCCCN)NC(=O)[C@@H](N)Cc1ccc(O)cc1)C(=O)N[C@@H](CC(C)C)C(=O)N[C@@H](CCCCN)C(=O)N[C@@H](Cc1ccc(O)cc1)C(=O)N[C@@H](CC(C)C)C(N)=O [BP095] | 5 to 7.5 µM | 5 to 7.5 µM | 7% | 50% | 76% | 2.5 to 5 µM
CC[C@H](C)[C@H](NC(=O)[C@H](CCCCN)NC(=O)[C@H](CCCCN)NC(=O)[C@H](Cc1ccccc1)NC(=O)[C@H](CC(C)C)NC(=O)[C@H](CCCCN)NC(=O)[C@H](Cc1ccc(O)cc1)NS(=O)(=O)c1ccc(C)cc1)C(=O)N[C@@H](CC(C)C)C(=O)N[C@@H](CCCCN)C(=O)N[C@@H](Cc1ccc(O)cc1)C(=O)N[C@@H](CC(C)C)C(N)=O [BP097] | >7.5 µM | >7.5 µM | 83% | 81% | 88% | <2.5 µM
CC[C@H](C)[C@H](NC(=O)[C@H](CCCCN)NC(=O)[C@H](CCCCN)NC(=O)[C@H](Cc1ccccc1)NC(=O)[C@H](CC(C)C)NC(=O)[C@H](CCCCN)NC(=O)[C@H](CCCCN)NC(C)=O)C(=O)N[C@@H](CC(C)C)C(=O)N[C@@H](CCCCN)C(=O)N[C@@H](Cc1ccc(O)cc1)C(=O)N[C@@H](CC(C)C)C(N)=O [BP101] | >7.5 µM | 5 to 7.5 µM | 4% | 31% | 62% | 2.5 µM
CC[C@H](C)[C@H](NC(=O)[C@H](CCCCN)NC(=O)[C@H](CCCCN)NC(=O)[C@H](Cc1ccccc1)NC(=O)[C@H](CC(C)C)NC(=O)[C@H](CCCCN)NC(=O)[C@H](CCCCN)NS(=O)(=O)c1ccc(C)cc1)C(=O)N[C@@H](CC(C)C)C(=O)N[C@@H](CCCCN)C(=O)N[C@@H](Cc1ccc(O)cc1)C(=O)N[C@@H](CC(C)C)C(N)=O [BP102] | 5 to 7.5 µM | 2.5 to 5 µM | 39% | 79% | 80% | <2.5 µM
CC[C@H](C)[C@H](NC(=O)[C@H](CCCCN)NC(=O)[C@H](CCCCN)NC(=O)[C@H](Cc1ccccc1)NC(=O)[C@H](CC(C)C)NC(=O)[C@H](CCCCN)NC(=O)[C@H](CCCCN)NC(=O)c1ccccc1)C(=O)N[C@@H](CC(C)C)C(=O)N[C@@H](CCCCN)C(=O)N[C@@H](Cc1ccc(O)cc1)C(=O)N[C@@H](CC(C)C)C(N)=O [BP103] | 7.5 µM | 5 to 7.5 µM | 42% | 83% | 80% | <2.5 µM
CC[C@H](C)[C@H](NC(=O)[C@H](CCCCN)NC(=O)[C@H](CCCCN)NC(=O)[C@H](Cc1ccccc1)NC(=O)[C@H](CC(C)C)NC(=O)[C@H](CCCCN)NC(=O)[C@@H](N)CC(C)C)C(=O)N[C@@H](CC(C)C)C(=O)N[C@@H](CCCCN)C(=O)N[C@@H](Cc1ccc(O)cc1)C(=O)N[C@@H](CC(C)C)C(N)=O [BP105] | 5 µM | 5 to 7.5 µM | 14% | 91% | 90% | 2.5 to 5 µM
CC[C@H](C)[C@H](NC(=O)[C@H](CCCCN)NC(=O)[C@H](CCCCN)NC(=O)[C@H](Cc1ccccc1)NC(=O)[C@H](CC(C)C)NC(=O)[C@H](CCCCN)NC(=O)[C@H](Cc1ccc(O)cc1)NS(=O)(=O)c1ccc(C)cc1)C(=O)N[C@@H](CC(C)C)C(=O)N[C@@H](CCCCN)C(=O)N[C@@H](CCCCN)C(=O)N[C@@H](CC(C)C)C(N)=O [BP121] (Tos-YKLFKKILKKL-NH2) | >7.5 µM | 2.5 to 5 µM | 22% | 81% | 86% | 2.5 to 5 µM
CC[C@H](C)[C@H](NC(=O)[C@H](CCCCN)NC(=O)[C@H](CCCCN)NC(=O)[C@H](Cc1ccccc1)NC(=O)[C@H](CC(C)C)NC(=O)[C@H](CCCCN)NC(=O)[C@H](Cc1ccc(O)cc1)NC(=O)c1ccccc1)C(=O)N[C@@H](CC(C)C)C(=O)N[C@@H](CCCCN)C(=O)N[C@@H](CCCCN)C(=O)N[C@@H](CC(C)C)C(N)=O [BP122] (Bz-YKLFKKILKKL-NH2) | >7.5 µM | 5 to 7.5 µM | 32% | 78% | 96% | 2.5 to 5 µM
Ac-WKLFKKILKWL-NH2 [BP038] | >7.5 µM | >7.5 µM | 80% | 86% | 80% | <2.5 µM
FKLFKKILKFL-NH2 [BP066] | 2.5 to 5 µM | 5 to 7.5 µM | 9% | 63% | 89% | 2.5 to 5 µM
